Source: patent US10233173B2, “Substituted 1,2,3-triazoles as NR2B-selective NMDA modulators” (JANSSEN PHARMACEUTICA NV, priority 2016, dated 2019)

molecular target: human GluN1/GluN2B NMDA receptors (Homo sapiens, UniProt Q05586+Q13224); assay: Cell-based calcium flux (FLIPR) assay on cloned human NR1/NR2B ion channels expressed in mammalian cells; conditions: standard assay; glutamate at ~EC80; FLIPR calcium flux
How it was run: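 Calcium influx followed by FLIPR fluorescence after 5 min compound exposure and a further 5 min co-agonist challenge: 10 μM glycine with glutamate at ~EC80 (standard) or EC40 (HTS).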

Sequence of human GluN1/GluN2B NMDA receptors (Q13224 27-1484, other chains not shown): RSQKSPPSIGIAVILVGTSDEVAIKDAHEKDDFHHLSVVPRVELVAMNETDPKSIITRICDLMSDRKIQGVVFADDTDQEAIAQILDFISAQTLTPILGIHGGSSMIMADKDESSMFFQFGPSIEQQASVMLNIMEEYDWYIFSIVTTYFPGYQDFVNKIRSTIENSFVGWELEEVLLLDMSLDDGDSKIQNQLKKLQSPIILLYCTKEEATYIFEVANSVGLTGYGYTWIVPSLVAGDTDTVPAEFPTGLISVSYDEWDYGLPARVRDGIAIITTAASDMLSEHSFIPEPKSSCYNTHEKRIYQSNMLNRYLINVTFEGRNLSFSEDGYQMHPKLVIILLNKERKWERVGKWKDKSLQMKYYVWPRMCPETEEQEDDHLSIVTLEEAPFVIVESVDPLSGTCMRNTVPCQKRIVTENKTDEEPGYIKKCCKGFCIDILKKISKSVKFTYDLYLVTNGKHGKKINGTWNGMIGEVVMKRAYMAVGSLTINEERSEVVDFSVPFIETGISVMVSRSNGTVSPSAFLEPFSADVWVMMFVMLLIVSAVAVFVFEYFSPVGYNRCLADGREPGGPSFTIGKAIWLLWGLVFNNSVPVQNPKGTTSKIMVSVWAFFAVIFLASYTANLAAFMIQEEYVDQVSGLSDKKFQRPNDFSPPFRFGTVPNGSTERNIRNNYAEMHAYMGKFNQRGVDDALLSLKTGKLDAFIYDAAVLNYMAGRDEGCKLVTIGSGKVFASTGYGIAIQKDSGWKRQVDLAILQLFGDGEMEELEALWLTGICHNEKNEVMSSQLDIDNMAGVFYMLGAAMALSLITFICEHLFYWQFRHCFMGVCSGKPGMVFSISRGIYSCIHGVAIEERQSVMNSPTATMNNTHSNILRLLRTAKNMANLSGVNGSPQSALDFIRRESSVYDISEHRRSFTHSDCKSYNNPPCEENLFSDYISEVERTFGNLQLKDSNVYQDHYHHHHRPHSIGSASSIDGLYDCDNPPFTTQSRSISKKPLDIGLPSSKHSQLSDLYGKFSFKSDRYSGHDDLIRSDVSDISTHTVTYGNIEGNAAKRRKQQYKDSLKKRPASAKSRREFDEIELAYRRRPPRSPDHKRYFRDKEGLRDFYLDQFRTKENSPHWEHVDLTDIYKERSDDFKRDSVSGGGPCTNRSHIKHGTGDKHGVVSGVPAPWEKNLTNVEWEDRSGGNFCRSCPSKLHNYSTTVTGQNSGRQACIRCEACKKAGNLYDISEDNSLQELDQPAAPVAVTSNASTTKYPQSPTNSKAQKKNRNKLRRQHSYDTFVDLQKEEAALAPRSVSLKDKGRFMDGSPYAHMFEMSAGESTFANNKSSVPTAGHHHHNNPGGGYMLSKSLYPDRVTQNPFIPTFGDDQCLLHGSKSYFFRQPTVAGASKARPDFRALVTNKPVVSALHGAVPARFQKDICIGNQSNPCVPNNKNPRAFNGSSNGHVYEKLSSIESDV

Compared with Cc1nc(OCc2cn(-c3ccc(C(F)(F)F)s3)nn2)ncc1F [Example 668, 5-Fluoro-4-methyl-2-((1-(5-(trifluoromethyl)thiophen-2-yl)-1H-1,2,3-triazol-4-yl)methoxy)pyrimidine], Cc1ccc(F)c(-n2cc(COc3ncc(F)c(C)n3)nn2)c1 [Example 486, 5-Fluoro-2-[[1-(2-fluoro-5-methyl-phenyl)triazol-4-yl]methoxy]-4-methyl-pyrimidine] is higher in IC50: 0.008 µM for the first, over 2.99 µM for the second. The first is the more potent here.

Compared with Cc1c(F)ccc(-n2cc(COc3ncc(C4CC4)cn3)nn2)c1F [Example 647, 5-Cyclopropyl-2-[[1-(2,4-difluoro-3-methyl-phenyl)triazol-4-yl]methoxy]pyrimidine], Cc1c(F)ccc(-n2cc(COc3nccc(C4CC4)n3)nn2)c1F [Example 648, 4-Cyclopropyl-2-[[1-(2,4-difluoro-3-methyl-phenyl)triazol-4-yl]methoxy]pyrimidine] is 17-fold higher in IC50: 0.034 µM for the first, 0.592 µM for the second.

Going from Cc1cnc(OCc2cn(-c3ccc(F)c(OC(F)F)c3)nn2)nc1N(C)C [Example 516, 2-[[1-[3-(Difluoromethoxy)-4-fluoro-phenyl]triazol-4-yl]methoxy]-N,N,5-trimethyl-pyrimidin-4-amine] to Nc1ccnc(OCc2cn(-c3ccc(F)c(OC(F)F)c3)nn2)n1 [Example 501, 2-[[1-[3-(Difluoromethoxy)-4-fluoro-phenyl]triazol-4-yl]methoxy]pyrimidin-4-amine], the IC50 rises from 0.017 µM to 0.052 µM (3.1-fold). The first is the more potent here.

Going from CC(F)(F)c1cc(-n2cc(COc3ccc(C(F)(F)F)cn3)nn2)ccc1F [Example 559, 2-[[1-[3-(1,1-Difluoroethyl)-4-fluoro-phenyl]triazol-4-yl]methoxy]-5-(trifluoromethyl)pyridine] to CC(C)(O)c1cnc(OCc2cn(-c3ccc(F)c(C(F)(F)F)c3)nn2)nc1 [Example 435, 2-[2-[[1-[4-Fluoro-3-(trifluoromethyl)phenyl]triazol-4-yl]methoxy]pyrimidin-5-yl]propan-2-ol], the IC50 falls from 0.812 µM to 0.098 µM (8.3-fold). The second is the more potent here.

Going from CNc1ccnc(OCc2cn(-c3ccc(Cl)c(C(C)(F)F)c3)nn2)n1 [Example 548, 2-[[1-[4-Chloro-3-(1,1-difluoroethyl)phenyl]triazol-4-yl]methoxy]-N-methyl-pyrimidin-4-amine] to CC(F)(F)c1cc(-n2cc(COc3nccc(N)n3)nn2)ccc1Cl [Example 547, 2-[[1-[4-Chloro-3-(1,1-difluoroethyl)phenyl]triazol-4-yl]methoxy]pyrimidin-4-amine], the IC50 falls from 0.055 µM to 0.033 µM (1.7-fold).

First: FC1CN(c2cnc(OCc3cn(-c4ccc(Cl)c(OC(F)F)c4)nn3)nc2)C1 [Example 392, 2-((1-(4-Chloro-3-(difluoromethoxy)phenyl)-1H-1,2,3-triazol-4-yl)methoxy)-5-(3-fluoroazetidin-1-yl)pyrimidine]
Second: Fc1ccc(-n2cc(COc3nccc(N4CC(F)(F)C4)n3)nn2)cc1OC(F)F [Example 511, 4-(3,3-Difluoroazetidin-1-yl)-2-[[1-[3-(difluoromethoxy)-4-fluoro-phenyl]triazol-4-yl]methoxy]pyrimidine]
The IC50 of the first is 2.4-fold lower: 0.017 µM for the first, 0.041 µM for the second.

Compared with Fc1ccc(-n2cc(COc3ncccn3)nn2)cc1F [Example 597, 2-[[1-(3,4-Difluorophenyl)triazol-4-yl]methoxy]pyrimidine], CCc1cnc(OCc2cn(-c3ccc(F)c(Cl)c3)nn2)nc1 [Example 621, 2-[[1-(3-Chloro-4-fluoro-phenyl)triazol-4-yl]methoxy]-5-ethyl-pyrimidine] is 700-fold lower in IC50: 2.1 µM for the first, 0.003 µM for the second. The second is the more potent here.

Going from Fc1ccc(-n2cc(COc3ncc(C(F)(F)F)cn3)nn2)c(F)c1C(F)F [Example 652, 2-[[1-[3-(Difluoromethyl)-2,4-difluoro-phenyl]triazol-4-yl]methoxy]-5-(trifluoromethyl)pyrimidine] to Fc1ccc(-n2cc(COc3ncc(Br)cn3)nn2)cc1C(F)(F)F [Example 454, 5-Bromo-2-((1-(4-fluoro-3-(trifluoromethyl)phenyl)-1H-1,2,3-triazol-4-yl)methoxy)pyrimidine], the IC50 falls from 0.112 µM to 0.013 µM (8.6-fold).

Going from Fc1ccc(-n2cc(COc3ncc(N4CCOCC4)cn3)nn2)cc1C(F)(F)F [Example 456, 4-(2-((1-(4-Fluoro-3-(trifluoromethyl)phenyl)-1H-1,2,3-triazol-4-yl)methoxy)pyrimidin-5-yl)morpholine] to Cc1cnc(OCc2cn(-c3ccc(Cl)c(C(C)(F)F)c3)nn2)nc1 [Example 530, 2-[[1-[4-Chloro-3-(1,1-difluoroethyl)phenyl]triazol-4-yl]methoxy]-5-methyl-pyrimidine], the IC50 falls from 0.5 µM to 0.005 µM (100-fold).

CCc1cnc(OCc2cn(-c3cc(C)ccn3)nn2)nc1 [Example 663, 5-Ethyl-2-[[1-(4-methyl-2-pyridyl)triazol-4-yl]methoxy]pyrimidine] gave an IC50 of 2.45 µM.

same assay, conditions: standard assay; human GluN1/GluN2B, calcium flux (FLIPR), glutamate ~EC80

Compared with CC(F)(F)c1cccc(-n2cc(COc3nccc(N)n3)nn2)c1 [Example 316, 2-[[1-[3-(1,1-Difluoroethyl)phenyl]triazol-4-yl]methoxy]pyrimidin-4-amine], CC(F)(F)c1cccc(-n2cc(COc3ncc(Cl)cn3)nn2)c1 [Example 294, 5-Chloro-2-[[1-[3-(1,1-difluoroethyl)phenyl]triazol-4-yl]methoxy]pyrimidine] is 61-fold lower in IC50: 0.183 µM for the first, 0.003 µM for the second.

Compared with COc1cc(-n2cc(COc3ncc(C)cn3)nn2)ccc1Cl [Example 88, 2-[[1-(4-Chloro-3-methoxy-phenyl)triazol-4-yl]methoxy]-5-methyl-pyrimidine], Cc1cnc(OCc2cn(-c3cccc(F)c3)nn2)nc1 [Example 232, 2-[[1-(3-Fluorophenyl)triazol-4-yl]methoxy]-5-methyl-pyrimidine] is 11-fold higher in IC50: 0.019 µM for the first, 0.205 µM for the second.

First: CC(F)(F)c1cc(-n2cc(COc3ncc(F)cn3)nn2)ccc1F [Example 80, 2-[[1-[3-(1,1-Difluoroethyl)-4-fluoro-phenyl]triazol-4-yl]methoxy]-5-fluoro-pyrimidine]
Second: Fc1ccc(-n2cc(COc3ncc(C(F)(F)F)cn3)nn2)cc1C(F)F [Example 50, 2-[[1-[3-(Difluoromethyl)-4-fluoro-phenyl]triazol-4-yl]methoxy]-5-(trifluoromethyl)pyrimidine]
The IC50 of the first is 4.6-fold higher: 0.032 µM for the first, 0.007 µM for the second. The second is the more potent here.

First: COCc1ccnc(OCc2cn(-c3ccc4c(c3)CCC4)nn2)n1 [Example 368, 2-[(1-Indan-5-yltriazol-4-yl)methoxy]-4-(methoxymethyl)pyrimidine]
Second: Cc1ccnc(OCc2cn(-c3ccc(Cl)c(OC(F)F)c3)nn2)n1 [Example 21, 2-[[1-[4-Chloro-3-(difluoromethoxy)phenyl]triazol-4-yl]methoxy]-4-methyl-pyrimidine]
The IC50 of the first is 57-fold higher: 0.114 µM for the first, 0.002 µM for the second.

First: Cc1cnc(OCc2cn(-c3cccc(OC(F)(F)F)c3)nn2)nc1 [Example 342, 5-Methyl-2-[[1-[3-(trifluoromethoxy)phenyl]triazol-4-yl]methoxy]pyrimidine]
Second: CC(F)(F)c1cccc(-n2cc(COc3ncc(OC(F)F)cn3)nn2)c1 [Example 308, 2-[[1-[3-(1,1-Difluoroethyl)phenyl]triazol-4-yl]methoxy]-5-(difluoromethoxy)pyrimidine]
The IC50 of the first is 5.7-fold higher: 0.017 µM for the first, 0.003 µM for the second. The second is the more potent here.

First: COc1cnc(NCc2cn(-c3ccc(Cl)c(C(F)F)c3)nn2)nc1 [Example 203, N-[[1-[4-Chloro-3-(difluoromethyl)phenyl]triazol-4-yl]methyl]-5-methoxy-pyrimidin-2-amine]
Second: FC(F)c1cc(-n2cc(CNc3ncc(Cl)cn3)nn2)ccc1Cl [Example 200, 5-Chloro-N-[[1-[4-chloro-3-(difluoromethyl)phenyl]triazol-4-yl]methyl]pyrimidin-2-amine]
The IC50 of the first is 4.4-fold lower: 0.03 µM for the first, 0.131 µM for the second. The first is the more potent here.

Compared with Fc1ccc(-n2cc(CNc3ncccn3)nn2)cc1C(F)(F)F [Example 3, N-[[1-[4-Fluoro-3-(trifluoromethyl)phenyl]triazol-4-yl]methyl]pyrimidin-2-amine], FC(F)c1cccc(-n2cc(CNc3ncccn3)nn2)c1 [Example 6] is 3.8-fold higher in IC50: 2.8 µM for the first, 10.6 µM for the second. The first is the more potent here.

Compared with Cc1ccnc(OC(C)c2cn(-c3ccc(Cl)c(OC(F)F)c3)nn2)n1 (racemic) [Example 59, (R/S)-2-[1-[1-[4-Chloro-3-(difluoromethoxy)phenyl]triazol-4-yl]ethoxy]-4-methyl-pyrimidine], COc1ncccc1OCc1cn(-c2ccc(Cl)c(OC(F)F)c2)nn1 [Example 103, 3-[[1-[4-Chloro-3-(difluoromethoxy)phenyl]triazol-4-yl]methoxy]-2-methoxy-pyridine] is 1.6-fold higher in IC50: 0.04 µM for the first, 0.064 µM for the second.

Compared with Clc1ccc(-n2cc(COc3ncc(Cl)cn3)nn2)cc1 [Example 225, 5-Chloro-2-[[1-(4-chlorophenyl)triazol-4-yl]methoxy]pyrimidine], FC(F)c1cc(-n2cc(COc3ncc(Cl)cn3)nn2)ccc1Cl [Example 47, 5-Chloro-2-[[1-[4-chloro-3-(difluoromethyl)phenyl]triazol-4-yl]methoxy]pyrimidine] is 23-fold lower in IC50: 0.07 µM for the first, 0.003 µM for the second.

Compared with FC(F)c1cc(-n2cc(COc3ccncn3)nn2)ccc1Cl [Example 12, 4-[[1-[4-Chloro-3-(difluoromethyl)phenyl]triazol-4-yl]methoxy]pyrimidine], Fc1ccc(-n2cc(COc3ccc(C(F)(F)F)cn3)nn2)cc1C(F)F [Example 65, 2-[[1-[3-(Difluoromethyl)-4-fluoro-phenyl]triazol-4-yl]methoxy]-5-(trifluoromethyl)pyridine] is 40-fold lower in IC50: 2.23 µM for the first, 0.056 µM for the second. The second is the more potent here.

Compared with Cc1cnc(OCc2cn(-c3cncc(C)c3)nn2)nc1 [Example 176, 5-Methyl-2-[[1-(5-methyl-3-pyridyl)triazol-4-yl]methoxy]pyrimidine], Cc1cnc(OCc2cn(-c3ccccc3C)nn2)nc1 [Example 240, 5-Methyl-2-[[1-(o-tolyl)triazol-4-yl]methoxy]pyrimidine] is 6-fold higher in IC50: 0.929 µM for the first, 5.58 µM for the second. The first is the more potent here.

Compared with Cc1ccc(-n2cc(COc3ncc(F)cn3)nn2)cc1 [Example 257, 5-Fluoro-2-[[1-(p-tolyl)triazol-4-yl]methoxy]pyrimidine], Cc1cnc(OCc2cn(-c3cccc(C(F)F)c3)nn2)nc1N(C)C [Example 281, 2-[[1-[3-(Difluoromethyl)phenyl]triazol-4-yl]methoxy]-N,N,5-trimethyl-pyrimidin-4-amine] is 21-fold lower in IC50: 2.69 µM for the first, 0.13 µM for the second. The second is the more potent here.
